Measurements reported in PMC7816042, “Insights into the Structure-Activity Relationship of Glycosides as Positive Allosteric Modulators Acting on P2X7 Receptors” (Molecular Pharmacology, 2021).
Values joined by “and” are separate entries in the source; they are usually repeats but may differ in a detail not shown here. Equal entries are not always repeated. Structures can show the parent of a compound that is named as a salt.

Target: T1, human P2X7 (Homo sapiens, UniProt Q99572)
T1 construct: expressed in transfected cells
T1 sequence (Q99572 1-595): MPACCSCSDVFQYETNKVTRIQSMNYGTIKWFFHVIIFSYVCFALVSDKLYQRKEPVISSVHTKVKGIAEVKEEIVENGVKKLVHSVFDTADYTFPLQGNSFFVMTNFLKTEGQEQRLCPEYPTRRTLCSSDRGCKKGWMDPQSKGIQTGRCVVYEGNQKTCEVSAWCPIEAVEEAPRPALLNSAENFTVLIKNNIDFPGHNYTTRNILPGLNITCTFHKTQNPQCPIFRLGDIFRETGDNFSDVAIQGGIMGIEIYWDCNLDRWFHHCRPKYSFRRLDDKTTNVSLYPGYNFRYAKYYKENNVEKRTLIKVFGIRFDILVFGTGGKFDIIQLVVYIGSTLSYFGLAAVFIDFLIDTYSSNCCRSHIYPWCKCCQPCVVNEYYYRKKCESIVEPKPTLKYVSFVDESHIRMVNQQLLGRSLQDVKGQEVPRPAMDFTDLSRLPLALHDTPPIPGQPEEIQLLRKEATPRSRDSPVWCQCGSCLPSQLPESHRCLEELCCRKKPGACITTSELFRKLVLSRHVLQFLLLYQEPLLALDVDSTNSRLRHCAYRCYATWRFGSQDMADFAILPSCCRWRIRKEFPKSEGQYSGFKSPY
Assay: YO-PRO-1 dye uptake assay in HEK-hP2X7 cells
Format: cell-based
Details: for ATP-induced YO-PRO-1 response in fixed-concentration screen: 200 µM ATP, compared with ATP + DMSO; for ATP-induced YO-PRO-1 response in fixed-concentration screen / PAM effect on ATP dose-response curve / EC50 ratio / Maximum response (fold increase): 10 µM glycoside; for PAM effect on ATP dose-response curve: HEK-hP2X7, result in words; for EC50 ratio: average EC50 for ATP + vehicle of each set of experiments used; for Maximum response (fold increase): maximum response defined at 1 mM ATP
Description: ATP-induced dye uptake experiments were performed as described previously ([Bidula et al., 2019b]). Briefly, HEK-hP2X7 cells were plated at 2 × 10^4 cells per well (100 μl per well) in complete medium and left overnight to attach to poly-D-lysine–coated 96-well plates. YO-PRO-1 iodide was prepared in a low divalent buffered solution ([…], 2 mM KCl, 13 mM D-glucose, 10 mM HEPES, 0.2 mM CaCl2 pH 7.3) to a final concentration of 2 μM. Medium was removed from the plate using a manual multichannel pipette and YO-PRO-1 containing buffer applied to wells (180 μl per well). […] A Flexstation 3 plate reader (Molecular Devices, Sunnyvale, CA) was used to record YO-PRO-1 fluorescence in HEK-hP2X7 for 300 seconds after the addition of ATP (at 10× final concentration) with/without ginsenoside compounds or vehicle (DMSO). Plates were allowed to warm up to 37°C for 10 minutes before initiating the recording. Baseline recordings were made for 40 seconds before compound addition using the Flexstation 3 fluidics system. YO-PRO-1 fluorescence was measured at 520 nm after excitation at 490 nm (auto cutoff at 495 nm), and the sample interval was 3.5 seconds. Flexstation settings were photomultiplier tube (PMT) medium, six reads per well, pipette height 170, and a rate of injection of 3. Data were acquired using Softmax Pro version 5.4 (Molecular Devices). To analyze the data, area under the dye uptake curve was calculated in Softmax Pro version 5 using zero baseline data with a lag time of 50 seconds (50–300 seconds).
Results are expressed as means ± S.D. from the indicated number of experiments. For YO-PRO-1 dye uptake and intracellular calcium experiments, each independent experiment used triplicate wells, and the means of the replicates were collated and plotted. Technical replicates were used to ensure reliability of fluorescence values. […] Dose-response curves were plotted by a nonlinear regression fit with variable slope using GraphPad Prism software version 7. Half-maximal responses are expressed as EC50 values with 95% confidence intervals. These values were calculated from the collated data for each compound from three independent experiments. Statistical differences were determined by analysis of the data by one-way ANOVA followed by Dunnett’s multiple comparison test or Sidak’s multiple comparison test using GraphPad Prism version 7. P < 0.05 was the accepted minimum level of significance.

SMILES | ATP-induced YO-PRO-1 response in fixed-concentration screen | PAM effect on ATP dose-response curve | EC50 ratio | Maximum response (fold increase) | Effect of AZ10606120 pretreatment on response to ATP + glycoside (P2X7 dependence) (10 µM AZ10606120 pretreatment) | Toxic effect on cells (YO-PRO-1 uptake without ATP or without P2X7)
CC(C)=CCC[C@](C)(O)[C@H]1CC[C@]2(C)[C@@H]1[C@H](O)C[C@@H]1[C@@]3(C)CC[C@H](O[C@@H]4O[C@H](CO)[C@@H](O)[C@H](O)[C@H]4O[C@@H]4O[C@H](CO)[C@@H](O)[C@H](O)[C@H]4O)C(C)(C)[C@@H]3CC[C@]12C (single isomer, unassigned) [ginsenoside-Rg3 (mixed isomers), ginsenoside-Rg3] | small increase in the ATP-induced YO-PRO-1 response, which was not statistically significant | – | – | – | – | –
CC[C@H](CC[C@@H](C)[C@H]1CC[C@H]2[C@@H]3CC=C4C[C@@H](O[C@@H]5O[C@H](CO)[C@@H](O)[C@H](O)[C@H]5O)CC[C@]4(C)[C@H]3CC[C@]12C)C(C)C [Daucosterol, daucosterol] | – | no effect on the ATP dose-response curves | 0.7 | 1.33 fold | – | –
COC(=O)[C@@]1(C)CC[C@]2(C(=O)O)CC[C@]3(C)C(=CC[C@@H]4[C@@]5(C)C[C@H](O)[C@H](O[C@@H]6OC[C@@H](O[C@@H]7O[C@H](CO)[C@@H](O)[C@H](O)[C@H]7O)[C@H](O)[C@H]6O)[C@@](C)(CO)[C@@H]5CC[C@]43C)[C@@H]2C1 [Esculentoside A, esculentoside A] | no modulation of P2X7 | inactive | 0.8 | 0.94 fold | – | –
CC(C)=CCC[C@@](C)(O)[C@H]1CC[C@]2(C)[C@@H]1[C@H](O)C[C@@H]1[C@@]3(C)CC[C@H](O[C@@H]4O[C@H](CO)[C@@H](O)[C@H](O)[C@H]4O)C(C)(C)[C@@H]3CC[C@]12C [Ginsenoside-20(R)-Rh2, 20(R)-ginsenoside-Rh2] | – | – | 0.8 | 1.53 fold | – | –
CC(C)=CCC[C@](C)(O)[C@H]1CC[C@]2(C)[C@@H]1[C@H](O)C[C@@H]1[C@@]3(C)CC[C@H](O[C@@H]4O[C@H](CO)[C@@H](O)[C@H](O)[C@H]4O)C(C)(C)[C@@H]3CC[C@]12C [Ginsenoside-20(S)-Rh2, 20(S)-ginsenoside-Rh2] | – | – | 1.8 | 2.6 fold | – | –
CC(C)=CCC[C@](C)(O[C@@H]1O[C@H](CO[C@@H]2O[C@H](CO)[C@@H](O)[C@H](O)[C@H]2O)[C@@H](O)[C@H](O)[C@H]1O)[C@H]1CC[C@]2(C)[C@@H]1[C@H](O)C[C@@H]1[C@@]3(C)CC[C@H](O[C@@H]4O[C@H](CO)[C@@H](O)[C@H](O)[C@H]4O[C@@H]4O[C@H](CO)[C@@H](O)[C@H](O)[C@H]4O)C(C)(C)[C@@H]3CC[C@]12C [Ginsenoside-Rb1, ginsenoside-Rb1] | – | only type I PAM activity | 1.2 | 1.9 fold and 1.96 fold | – | –
CC1(C)[C@@H](O[C@H]2O[C@H](C(=O)O)[C@@H](O)[C@H](O)[C@H]2O[C@@H]2O[C@H](C(=O)O)[C@@H](O)[C@H](O)[C@H]2O)CC[C@]2(C)[C@H]3C(=O)C=C4[C@@H]5C[C@@](C)(C(=O)O)CC[C@]5(C)CC[C@@]4(C)[C@]3(C)CC[C@@H]12 [Glycyrrhizic acid, glycyrrhizic acid] | no modulation of P2X7 | – | – | – | – | –
CC(C)=CCC[C@@](O)(CO[C@@H]1O[C@H](CO)[C@@H](O)[C@H](O)[C@H]1O)[C@H]1CC[C@]2(C)[C@@H]1CC[C@@H]1[C@@]3(C=O)CC[C@H](O[C@@H]4OC[C@H](O)[C@H](O[C@@H]5OC[C@@H](O)[C@H](O)[C@H]5O)[C@H]4O[C@@H]4O[C@@H](C)[C@H](O)[C@@H](O)[C@H]4O)C(C)(C)[C@@H]3CC[C@]12C [Gypenoside XLIX, gypenoside XLIX] | small increase in the ATP-induced YO-PRO-1 response, which was not statistically significant | did not reduce the EC50 value for ATP | 0.9 | 1.9 fold | – | –
C[C@H](CC[C@@H](O[C@@H]1O[C@H](CO[C@@H]2O[C@H](CO)[C@@H](O)[C@H](O)[C@H]2O)[C@@H](O)[C@H](O)[C@H]1O[C@@H]1O[C@H](CO)[C@@H](O)[C@H](O)[C@H]1O)C(C)(C)O)[C@H]1CC[C@@]2(C)[C@@H]3CC=C4[C@@H](CC[C@H](O[C@@H]5O[C@H](CO[C@@H]6O[C@H](CO)[C@@H](O)[C@H](O)[C@H]6O)[C@@H](O)[C@H](O)[C@H]5O)C4(C)C)[C@]3(C)[C@H](O)C[C@]12C [Mogroside V, mogroside V] | no modulation of P2X7 | – | – | – | – | –
C[C@@H]1O[C@@H](O[C@H]2C[C@@H](O)[C@]3(CO)[C@H]4[C@H](O)C[C@]5(C)[C@@H](C6=CC(=O)OC6)CC[C@]5(O)[C@@H]4CC[C@]3(O)C2)[C@H](O)[C@H](O)[C@H]1O [Ouabain, ouabain, reference compound] | – | no effect on the ATP dose-response curves | 1.1 | 1.08 fold | – | –
CC(=O)O[C@@H]1C[C@]2(O)[C@H](CC[C@]3(C)[C@@H](c4ccc(=O)oc4)CC[C@@]32O)[C@@]2(C)CC[C@H](O[C@@H]3O[C@H](CO)[C@@H](O)[C@H](O)[C@H]3O)C=C12 [Scilliroside] | – | no effect on the ATP dose-response curves | 1.3 | 1.07 fold | – | –
C[C@H]1CC[C@@H]2[C@@H](C)[C@H]3[C@H](C[C@H]4[C@@H]5CC=C6C[C@@H](O[C@@H]7O[C@H](CO)[C@H](O)[C@H](O[C@@H]8O[C@H](CO)[C@@H](O)[C@H](O)[C@H]8O)[C@H]7O[C@@H]7O[C@@H](C)[C@H](O)[C@@H](O)[C@H]7O)CC[C@]6(C)[C@H]5CC[C@]34C)N2C1 [Solanine, solanine hydrochloride] | large increase | – | – | – | unaffected by AZ10606120 pretreatment | toxic effect on the cells
CC(C)=CCC[C@](C)(O[C@@H]1O[C@H](CO[C@@H]2OC[C@@H](O)[C@H](O)[C@H]2O)[C@@H](O)[C@H](O)[C@H]1O)[C@H]1CC[C@]2(C)[C@@H]1[C@H](O)C[C@@H]1[C@@]3(C)CC[C@H](O[C@@H]4O[C@H](CO)[C@@H](O)[C@H](O)[C@H]4O)C(C)(C)[C@@H]3CC[C@]12C [Stevenleaf (gypenoside IX), stevenleaf] | – | – | 0.7 | 1.64 fold | – | –
C=C1C[C@@]23CC[C@H]4[C@@](C)(CCC[C@@]4(C)C(=O)O[C@@H]4O[C@H](CO)[C@@H](O)[C@H](O)[C@H]4O)[C@@H]2CC[C@]1(O[C@@H]1O[C@H](CO)[C@@H](O)[C@H](O)[C@H]1O[C@@H]1O[C@H](CO)[C@@H](O)[C@H](O)[C@H]1O)C3 [Stevioside, stevioside] | no modulation of P2X7 | – | 1.0 | – | – | –
